From ChEMBL document CHEMBL5291721, “A preclinical secondary pharmacology resource illuminates target-adverse drug reaction associations of marketed drugs” (Nat Commun, 2023)

What was measured:
[1] = target: T1, 5-hydroxytryptamine receptor 1A (Homo sapiens, UniProt P08908); format: functional, cell-based
T1 sequence (P08908 whole entry): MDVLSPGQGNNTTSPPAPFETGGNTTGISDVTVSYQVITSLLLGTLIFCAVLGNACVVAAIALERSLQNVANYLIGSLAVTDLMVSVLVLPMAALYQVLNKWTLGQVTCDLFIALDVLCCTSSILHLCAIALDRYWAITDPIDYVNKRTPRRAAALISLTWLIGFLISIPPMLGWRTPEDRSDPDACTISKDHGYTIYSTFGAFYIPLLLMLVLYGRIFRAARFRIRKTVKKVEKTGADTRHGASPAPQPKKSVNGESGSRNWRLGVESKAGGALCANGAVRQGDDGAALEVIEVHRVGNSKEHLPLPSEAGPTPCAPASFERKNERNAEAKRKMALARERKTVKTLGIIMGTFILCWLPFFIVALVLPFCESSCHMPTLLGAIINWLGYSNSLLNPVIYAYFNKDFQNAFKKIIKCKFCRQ

[2] = target: 5-hydroxytryptamine receptor 2B (Homo sapiens, UniProt P41595); format: functional, cell-based
5-hydroxytryptamine receptor 2B, sequence (P41595 whole entry): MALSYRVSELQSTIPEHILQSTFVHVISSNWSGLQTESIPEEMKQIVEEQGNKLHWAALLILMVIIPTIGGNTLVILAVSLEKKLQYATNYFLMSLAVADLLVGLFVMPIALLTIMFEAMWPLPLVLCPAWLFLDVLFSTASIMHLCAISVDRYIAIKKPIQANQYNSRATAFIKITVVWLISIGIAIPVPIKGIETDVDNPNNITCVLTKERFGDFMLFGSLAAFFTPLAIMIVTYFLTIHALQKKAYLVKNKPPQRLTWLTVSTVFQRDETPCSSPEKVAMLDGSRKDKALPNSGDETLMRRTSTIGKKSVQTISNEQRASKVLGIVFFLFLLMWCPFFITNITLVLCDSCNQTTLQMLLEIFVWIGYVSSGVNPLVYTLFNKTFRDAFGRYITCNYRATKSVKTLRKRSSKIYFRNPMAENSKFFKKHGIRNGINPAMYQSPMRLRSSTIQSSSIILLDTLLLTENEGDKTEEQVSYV

Estrogen receptor = target: T2, Estrogen receptor (Homo sapiens, UniProt P03372)
T2 sequence (P03372 whole entry): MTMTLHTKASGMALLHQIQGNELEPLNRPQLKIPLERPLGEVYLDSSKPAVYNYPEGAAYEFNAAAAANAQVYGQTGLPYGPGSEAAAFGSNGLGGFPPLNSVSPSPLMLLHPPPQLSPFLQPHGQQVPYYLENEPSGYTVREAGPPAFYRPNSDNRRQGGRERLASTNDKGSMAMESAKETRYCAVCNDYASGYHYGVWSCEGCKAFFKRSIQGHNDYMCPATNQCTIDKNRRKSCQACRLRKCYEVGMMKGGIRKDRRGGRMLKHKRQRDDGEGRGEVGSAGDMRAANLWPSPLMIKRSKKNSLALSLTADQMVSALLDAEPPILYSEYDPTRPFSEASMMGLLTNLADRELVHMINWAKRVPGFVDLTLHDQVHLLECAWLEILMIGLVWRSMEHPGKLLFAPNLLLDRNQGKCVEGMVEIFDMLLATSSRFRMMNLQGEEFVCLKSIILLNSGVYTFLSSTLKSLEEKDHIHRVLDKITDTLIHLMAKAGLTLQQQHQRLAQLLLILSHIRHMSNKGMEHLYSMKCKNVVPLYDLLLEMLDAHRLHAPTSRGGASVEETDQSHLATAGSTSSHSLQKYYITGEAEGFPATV

[3] = target: T3, Gastrin/cholecystokinin type B receptor (Homo sapiens, UniProt P32239)
T3 sequence (P32239 whole entry): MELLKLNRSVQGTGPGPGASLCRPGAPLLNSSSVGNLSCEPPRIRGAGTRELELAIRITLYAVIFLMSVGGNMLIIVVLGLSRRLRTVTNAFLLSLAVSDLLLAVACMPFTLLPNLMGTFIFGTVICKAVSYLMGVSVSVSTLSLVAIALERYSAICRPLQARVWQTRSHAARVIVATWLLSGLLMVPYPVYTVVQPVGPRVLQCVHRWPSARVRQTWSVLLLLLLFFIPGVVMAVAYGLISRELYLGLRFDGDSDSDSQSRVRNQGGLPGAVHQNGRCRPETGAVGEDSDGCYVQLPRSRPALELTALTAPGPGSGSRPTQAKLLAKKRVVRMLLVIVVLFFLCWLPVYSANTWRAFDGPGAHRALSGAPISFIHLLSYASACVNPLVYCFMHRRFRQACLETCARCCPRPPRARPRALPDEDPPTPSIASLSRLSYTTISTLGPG

Histamine H1 receptor = Histamine H1 receptor (Homo sapiens, UniProt P35367)
Histamine H1 receptor, sequence (P35367 whole entry): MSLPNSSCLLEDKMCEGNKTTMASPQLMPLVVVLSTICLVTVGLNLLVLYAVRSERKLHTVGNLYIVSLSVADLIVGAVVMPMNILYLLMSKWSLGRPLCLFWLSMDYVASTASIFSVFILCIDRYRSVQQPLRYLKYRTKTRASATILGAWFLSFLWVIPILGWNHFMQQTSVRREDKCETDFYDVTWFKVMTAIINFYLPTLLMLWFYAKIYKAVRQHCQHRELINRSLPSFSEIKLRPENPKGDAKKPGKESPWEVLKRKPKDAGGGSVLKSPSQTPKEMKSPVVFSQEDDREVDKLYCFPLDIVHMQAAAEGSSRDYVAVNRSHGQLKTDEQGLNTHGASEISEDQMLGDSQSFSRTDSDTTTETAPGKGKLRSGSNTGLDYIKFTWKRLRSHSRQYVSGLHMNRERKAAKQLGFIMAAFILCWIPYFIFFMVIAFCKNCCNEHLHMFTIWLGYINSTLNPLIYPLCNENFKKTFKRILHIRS

[4] = target: T4, Alpha-1A adrenergic receptor (Homo sapiens, UniProt P35348); format: functional, cell-based
T4 sequence (P35348 whole entry): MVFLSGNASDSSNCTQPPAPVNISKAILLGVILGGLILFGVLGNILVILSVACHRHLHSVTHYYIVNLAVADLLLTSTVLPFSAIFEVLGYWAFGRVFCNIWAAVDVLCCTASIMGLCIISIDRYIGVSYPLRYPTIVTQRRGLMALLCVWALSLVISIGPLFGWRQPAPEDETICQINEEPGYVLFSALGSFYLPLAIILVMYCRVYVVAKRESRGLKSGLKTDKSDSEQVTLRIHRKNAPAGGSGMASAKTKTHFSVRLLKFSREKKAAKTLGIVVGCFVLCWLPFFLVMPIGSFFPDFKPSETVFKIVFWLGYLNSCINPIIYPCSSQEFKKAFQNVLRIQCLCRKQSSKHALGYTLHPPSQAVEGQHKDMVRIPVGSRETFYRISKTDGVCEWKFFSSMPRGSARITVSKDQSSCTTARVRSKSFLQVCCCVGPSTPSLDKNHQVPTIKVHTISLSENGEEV

Thromboxane A2 receptor = target: T5, Thromboxane A2 receptor (Homo sapiens, UniProt P21731); format: functional, cell-based
T5 sequence (P21731 whole entry): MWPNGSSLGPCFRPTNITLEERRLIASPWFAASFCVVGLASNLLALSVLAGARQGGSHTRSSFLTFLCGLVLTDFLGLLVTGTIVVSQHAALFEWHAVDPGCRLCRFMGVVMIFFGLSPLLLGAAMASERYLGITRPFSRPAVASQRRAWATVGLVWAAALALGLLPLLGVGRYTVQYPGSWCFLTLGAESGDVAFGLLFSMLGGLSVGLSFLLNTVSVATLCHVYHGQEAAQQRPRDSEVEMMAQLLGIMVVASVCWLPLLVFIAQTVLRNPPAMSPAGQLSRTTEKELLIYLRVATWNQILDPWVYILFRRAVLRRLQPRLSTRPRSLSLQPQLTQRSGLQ

[5] = target: 3',5'-cyclic-AMP phosphodiesterase 4A (Homo sapiens, UniProt P27815); format: functional
3',5'-cyclic-AMP phosphodiesterase 4A, sequence (P27815 whole entry): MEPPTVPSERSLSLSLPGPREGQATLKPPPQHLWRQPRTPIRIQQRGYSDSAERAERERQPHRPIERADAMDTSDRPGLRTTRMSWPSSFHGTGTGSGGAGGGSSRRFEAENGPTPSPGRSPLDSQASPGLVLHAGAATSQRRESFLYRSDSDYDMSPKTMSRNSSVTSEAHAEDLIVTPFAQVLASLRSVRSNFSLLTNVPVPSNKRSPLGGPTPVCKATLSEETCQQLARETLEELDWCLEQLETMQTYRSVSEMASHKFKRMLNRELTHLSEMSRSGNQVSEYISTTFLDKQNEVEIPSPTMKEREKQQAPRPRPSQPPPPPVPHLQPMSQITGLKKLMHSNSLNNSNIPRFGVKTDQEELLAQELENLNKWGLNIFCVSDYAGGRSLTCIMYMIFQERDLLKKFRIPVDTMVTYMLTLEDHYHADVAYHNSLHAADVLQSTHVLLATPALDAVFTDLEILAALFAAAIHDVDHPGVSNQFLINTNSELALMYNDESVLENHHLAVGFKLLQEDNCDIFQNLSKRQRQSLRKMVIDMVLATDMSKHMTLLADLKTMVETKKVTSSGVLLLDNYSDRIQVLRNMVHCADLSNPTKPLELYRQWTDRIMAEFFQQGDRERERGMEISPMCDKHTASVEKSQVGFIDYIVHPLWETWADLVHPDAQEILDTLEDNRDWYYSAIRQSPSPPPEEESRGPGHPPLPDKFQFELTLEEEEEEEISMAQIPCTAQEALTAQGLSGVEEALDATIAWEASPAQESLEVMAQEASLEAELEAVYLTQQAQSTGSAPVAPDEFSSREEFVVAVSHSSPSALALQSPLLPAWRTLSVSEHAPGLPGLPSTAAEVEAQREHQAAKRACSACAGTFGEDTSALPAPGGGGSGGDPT

[6] = target: Sodium-dependent noradrenaline transporter (Homo sapiens, UniProt P23975)
Sodium-dependent noradrenaline transporter, sequence (P23975 whole entry): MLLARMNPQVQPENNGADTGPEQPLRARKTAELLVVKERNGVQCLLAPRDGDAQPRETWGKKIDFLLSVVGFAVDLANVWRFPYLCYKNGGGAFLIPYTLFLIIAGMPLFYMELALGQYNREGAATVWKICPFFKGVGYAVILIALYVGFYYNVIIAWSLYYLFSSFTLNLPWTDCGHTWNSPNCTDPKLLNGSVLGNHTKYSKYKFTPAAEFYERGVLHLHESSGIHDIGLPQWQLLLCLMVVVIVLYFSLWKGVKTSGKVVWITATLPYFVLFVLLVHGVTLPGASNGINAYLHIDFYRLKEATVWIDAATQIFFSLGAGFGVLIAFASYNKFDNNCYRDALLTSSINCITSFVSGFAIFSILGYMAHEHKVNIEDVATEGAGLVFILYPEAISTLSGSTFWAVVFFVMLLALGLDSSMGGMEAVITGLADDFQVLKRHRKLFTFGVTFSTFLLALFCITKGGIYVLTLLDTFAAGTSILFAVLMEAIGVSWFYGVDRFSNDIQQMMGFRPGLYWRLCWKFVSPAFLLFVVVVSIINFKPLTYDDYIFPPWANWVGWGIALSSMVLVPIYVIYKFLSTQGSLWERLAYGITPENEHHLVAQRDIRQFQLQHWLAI
Note: assay procedure not described here.

SMILES | AC50 [1] | AC50 [2] | AC50 (Estrogen receptor) | AC50 [3] | AC50 (Histamine H1 receptor) | AC50 [4] | AC50 (Thromboxane A2 receptor) | AC50 [5] | AC50 [6]
CCCCC1C(=O)N(c2ccccc2)N(c2ccccc2)C1=O [PHENYLBUTAZONE] | > 10 µM | > 10 µM | > 10 µM | > 30 µM |  |  |  |  | 
[H]/N=C(/N)N/C(=N/[H])NCCc1ccccc1 [PHENFORMIN] | > 30 µM | > 10 µM | > 30 µM | > 30 µM | > 30 µM |  |  |  | 
CC1OC2(CS1)CN1CCC2CC1 (configuration not stated) [CEVIMELINE] | > 10 µM | > 10 µM | > 10 µM |  | > 30 µM | > 30 µM |  |  | 
CCC(C)C1(CC)C(=O)NC(=O)NC1=O (configuration not stated) [BUTABARBITAL] |  | > 30 µM | > 30 µM | > 30 µM | > 30 µM | > 30 µM |  |  | 
Oc1ccc2c(c1)CC[C@H](c1ccccc1)[C@@H]2c1ccc(OCCN2CCCC2)cc1 [LASOFOXIFENE] | > 30 µM | 9.49 µM |  | > 3 µM | 20 µM |  |  |  | 
COc1cc(N)c(Cl)cc1C(=O)NC1CCN(Cc2ccccc2)CC1 [CLEBOPRIDE] |  | 0.98 µM | > 30 µM | > 30 µM | > 30 µM | > 30 µM |  |  | 
CC(N)C(O)c1ccccc1 (configuration not stated) [PHENYLPROPANOLAMINE] | > 10 µM | > 10 µM |  | > 30 µM | > 10 µM | > 30 µM |  |  | 
C=CCNc1nc(NCC=C)nc(N2CCN(C(c3ccc(F)cc3)c3ccc(F)cc3)CC2)n1 [ALMITRINE] | > 30 µM | > 30 µM | > 30 µM | > 30 µM | > 30 µM |  |  |  | 
Nc1ncn([C@H]2C[C@H](O)[C@@H](CO)O2)c(=O)n1 [DECITABINE] | > 30 µM | > 30 µM |  | > 30 µM | > 30 µM |  |  |  | 
O=C(O)c1cn(C2CC2)c2cc(N3CCNCC3)c(F)cc2c1=O [CIPROFLOXACIN] |  |  | > 30 µM | > 30 µM |  |  | > 30 µM | > 30 µM | 
CCOC(=O)c1cncn1[C@H](C)c1ccccc1 [ETOMIDATE] | > 10 µM | > 10 µM | > 10 µM |  | > 10 µM | > 30 µM |  |  | 
CC(C)NCC(O)c1ccc(O)c(O)c1 (configuration not stated) [ISOPROTERENOL] | > 10 µM | > 10 µM |  | > 30 µM |  |  |  |  | 
CCC(=O)O[C@]1(C(=O)SCF)[C@H](C)C[C@H]2[C@@H]3C[C@H](F)C4=CC(=O)C=C[C@]4(C)[C@@]3(F)[C@@H](O)C[C@@]21C [FLUTICASONE PROPIONATE] | > 10 µM | > 30 µM |  | > 30 µM | > 30 µM | > 30 µM | > 30 µM | > 30 µM | > 30 µM
CC(C(=O)O)c1ccc(CC2CCCC2=O)cc1 (configuration not stated) [LOXOPROFEN] | > 30 µM | > 30 µM | > 30 µM | > 30 µM |  | > 30 µM |  |  | 
